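Each compound was tested at five concentrations against cells in 96-well plates for 48 hours. GI50 = concentration required for 50% inhibition of growth.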 Activity calls are given as the source filed them. Rule as the data show it: active = GI50 up to about 1.1 µM and inactive = higher.

Some test systems named below: A498; A549; ACHN; HCT-15; HOP-62; HT-29; IGROV-1; KM12; MCF7; MOLT-4; NCI-H522; OVCAR-8; PC-3; RXF 393; SF-295; SK-MEL-28; SK-MEL-2; SK-OV-3; SN12C; SR.
Assay in all cases: NCI anticancer screen, dose series, 48 h

Take `C[C@]12CC[C@H](O)CC1=CC[C@@H]1[C@@H]2CC[C@]2(C)C(=O)[C@@H](N3CCOCC3)C[C@@H]12`: the GI50 is > 100 µM (inactive) with A498; > 100 µM (inactive) with A549; > 100 µM (inactive) with ACHN; more than 100 µM with HCT-15; > 100 µM (inactive) in the assay with HOP-62; > 100 µM (inactive) in the assay on HT-29. In addition, the GI50 in the assay with IGROV-1 is > 100 µM (inactive); in the assay with KM12 it was > 100 µM (inactive); with MCF7, > 100 µM (inactive); with MOLT-4, 55.3 µM (inactive); in the assay with NCI-H522, 23.6 µM (inactive); with OVCAR-8, 47.1 µM (inactive). The GI50 was > 100 µM (inactive) in the assay on PC-3; 36.9 µM (inactive) in the assay with RXF 393; > 100 µM (inactive) in the assay with SF-295; > 100 µM (inactive) with SK-MEL-28; > 100 µM (inactive) in the assay on SK-MEL-2; > 100 µM (inactive) in the assay with SK-OV-3. Moreover, the GI50 in the assay with SN12C is > 100 µM (inactive); in the assay with SR, 44.2 µM (inactive).
As to `CCOC(=O)NC(NC1=NCCS1)(C(=O)OCC)C(F)(F)F` (stereo not given), the GI50 with A498 is > 100 µM (inactive); with A549, > 100 µM (inactive); in the assay on ACHN, > 100 µM (inactive); with HCT-15 it was more than 100 µM; in the assay with HOP-62 it was > 100 µM (inactive); in the assay on HT-29, > 100 µM (inactive). Further, the GI50 in the assay on IGROV-1, in the assay on KM12, with MCF7, in the assay with MOLT-4, with NCI-H522 and in the assay on OVCAR-8 was > 100 µM (inactive) throughout. In addition, the GI50 with PC-3, with RXF 393, with SF-295, in the assay with SK-MEL-28, with SK-MEL-2 and with SK-OV-3 was > 100 µM (inactive) in each case. Moreover, the GI50 with SN12C and with SR was > 100 µM (inactive) each time.
Turning to `COc1ccc2nc3cc(Cl)ccc3c(Nc3ccc(O)c(CN4CCN(C)CC4)c3)c2c1`, the GI50 in the assay on A498 was 4.51 µM (inactive); with A549, 1.87 µM (inactive); in the assay with ACHN, 1.64 µM (inactive); in the assay on HCT-15, 2.31 µM; in the assay on HOP-62, 2.06 µM (inactive); in the assay on HT-29, 1.67 µM (inactive). The GI50 in the assay with IGROV-1 is 1.71 µM (inactive); in the assay with KM12 it was 1.91 µM (inactive); with MCF7, 1.64 µM (inactive); with MOLT-4, 1.93 µM (inactive); in the assay with NCI-H522 it was 1.78 µM (inactive); in the assay on OVCAR-8, 1.79 µM (inactive). Also, the GI50 is 1.67 µM (inactive) with PC-3; 1.69 µM (inactive) in the assay on RXF 393; 1.91 µM (inactive) in the assay on SF-295; 1.92 µM (inactive) in the assay with SK-MEL-28; 1.81 µM (inactive) with SK-MEL-2; 5.79 µM (inactive) in the assay on SK-OV-3. Besides, the GI50 in the assay with SN12C is 1.85 µM (inactive); in the assay with SR, 0.676 µM (active).
Regarding `COc1cc(S(=O)(=O)Nc2ccc(-c3csc(/N=C\C=C\c4ccccc4)n3)cc2)ccc1Cl`, the GI50 with A498 was 20.6 µM (inactive); in the assay on A549 it was 80.5 µM (inactive); in the assay with ACHN it was 41.2 µM (inactive); in the assay with HCT-15 it was 50 µM; in the assay on HOP-62, 43 µM (inactive); in the assay on HT-29 it was > 100 µM (inactive). Also, the GI50 with IGROV-1 was 39.4 µM (inactive); in the assay with KM12, 84.5 µM (inactive); in the assay on MCF7 it was 36.1 µM (inactive); with MOLT-4 it was 38.1 µM (inactive); in the assay with NCI-H522, 24.5 µM (inactive); with OVCAR-8, 34.8 µM (inactive). Moreover, the GI50 is 19.9 µM (inactive) in the assay on PC-3; 16.1 µM (inactive) with RXF 393; 74.5 µM (inactive) in the assay with SF-295; > 100 µM (inactive) with SK-MEL-28; 26 µM (inactive) in the assay on SK-MEL-2; > 100 µM (inactive) in the assay with SK-OV-3. Also, the figures for the GI50 in the assay with SN12C and with SR were > 100 µM (inactive) and 32.5 µM (inactive), respectively.
For the compound `COC(=O)C1=C(C)N2[C@H](C(=O)O)CS[C@@]2(C)[C@H](C(=O)OC)[C@H]1c1cccc([N+](=O)[O-])c1`, the GI50 was > 100 µM (inactive) in the assay on A498; > 100 µM (inactive) with A549; > 100 µM (inactive) in the assay on ACHN; more than 100 µM in the assay on HCT-15; > 100 µM (inactive) in the assay with HOP-62; > 100 µM (inactive) in the assay with HT-29. In addition, the GI50 in the assay with IGROV-1, in the assay with KM12, in the assay on MCF7, with MOLT-4, in the assay on NCI-H522 and in the assay on OVCAR-8 was > 100 µM (inactive) in each case. Also, the GI50 in the assay on PC-3, in the assay with RXF 393, with SF-295, in the assay with SK-MEL-28, in the assay with SK-MEL-2 and in the assay with SK-OV-3 was > 100 µM (inactive) throughout. The GI50 in the assay on SN12C and in the assay with SR was > 100 µM (inactive) each time.
With `O=C(O)CC1(CC(=O)O)Nc2ccccc2SC1=O`, the GI50 is > 100 µM (inactive) in the assay with A498; > 100 µM (inactive) in the assay with A549; > 100 µM (inactive) with ACHN; more than 100 µM with HCT-15; > 100 µM (inactive) with HOP-62; > 100 µM (inactive) with HT-29. In addition, the GI50 in the assay with IGROV-1, in the assay with KM12, in the assay with MCF7, in the assay on MOLT-4, with NCI-H522 and in the assay with OVCAR-8 was > 100 µM (inactive) throughout. In addition, the GI50 in the assay with PC-3, in the assay on RXF 393, in the assay with SF-295, in the assay with SK-MEL-28, in the assay on SK-MEL-2 and with SK-OV-3 was > 100 µM (inactive) in each case. The GI50 with SN12C and with SR was > 100 µM (inactive) in each case.
With `NC1=Nc2ccccc2Sc2nncn21`, the GI50 in the assay on A498 was > 100 µM (inactive); in the assay on A549, > 100 µM (inactive); in the assay with ACHN, > 100 µM (inactive); with HCT-15, more than 100 µM; with HOP-62 it was > 100 µM (inactive); in the assay with HT-29, > 100 µM (inactive). Further, the GI50 in the assay on IGROV-1 is > 100 µM (inactive); in the assay on KM12, > 100 µM (inactive); with MCF7, > 100 µM (inactive); in the assay on MOLT-4 it was > 100 µM (inactive); in the assay on NCI-H522, 77.6 µM (inactive); in the assay with OVCAR-8, > 100 µM (inactive). The GI50 with PC-3, in the assay on RXF 393, in the assay with SF-295, with SK-MEL-28, with SK-MEL-2 and in the assay on SK-OV-3 was > 100 µM (inactive) throughout. Also, the GI50 in the assay with SN12C and with SR was > 100 µM (inactive) throughout.
For `COC(=O)Cc1c(-c2[nH]c3ccccc3c2CC(=O)OC)[nH]c2ccccc12`, the GI50 was 38.3 µM (inactive) with A498; > 52.6 µM (inactive) in the assay with A549; > 58.9 µM (inactive) in the assay with ACHN; more than 50.7 µM in the assay with HCT-15; 23.2 µM (inactive) with HOP-62; > 59.3 µM (inactive) with HT-29. Besides, the GI50 is 45.9 µM (inactive) in the assay on IGROV-1; 26.3 µM (inactive) with KM12; > 41.1 µM (inactive) in the assay on MCF7; > 47.4 µM (inactive) in the assay on MOLT-4; > 28.6 µM (inactive) in the assay on NCI-H522; 32.2 µM (inactive) in the assay on OVCAR-8. Also, the GI50 in the assay on PC-3 was > 49 µM (inactive); in the assay on RXF 393 it was 30.3 µM (inactive); in the assay on SF-295, > 57.9 µM (inactive); in the assay on SK-MEL-28, > 55 µM (inactive); in the assay on SK-MEL-2, > 57.7 µM (inactive); with SK-OV-3, > 58.1 µM (inactive). In addition, the figures for the GI50 in the assay on SN12C and with SR were > 59.4 µM (inactive) and > 55 µM (inactive), respectively.
Consider `O=C(O)c1nc2ccc(Cl)cc2[nH]c1=O`, for which the GI50 with A498 is > 100 µM (inactive); in the assay with A549 it was > 100 µM (inactive); in the assay with ACHN it was > 100 µM (inactive); in the assay on HCT-15, more than 100 µM; with HOP-62, > 100 µM (inactive); in the assay with HT-29 it was > 100 µM (inactive). In addition, the GI50 in the assay with IGROV-1, with KM12, with MCF7, in the assay with MOLT-4, in the assay on NCI-H522 and in the assay on OVCAR-8 was > 100 µM (inactive) each time. Further, the GI50 with PC-3, in the assay with RXF 393, with SF-295, with SK-MEL-28, in the assay on SK-MEL-2 and in the assay on SK-OV-3 was > 100 µM (inactive) in each case. The GI50 with SN12C and in the assay with SR was > 100 µM (inactive) throughout.
As to `COC(=O)c1ccccc1CC1Cc2cc3c(cc2C1)CCC3`, the GI50 with A498 was 49.4 µM (inactive); in the assay with A549, 36.1 µM (inactive); with ACHN, 36.6 µM (inactive); in the assay on HCT-15 it was 48.8 µM; in the assay with HOP-62, 41.4 µM (inactive); with HT-29, 29.2 µM (inactive). Also, the GI50 was 37.3 µM (inactive) with IGROV-1; 26.5 µM (inactive) in the assay with KM12; 45.9 µM (inactive) with MCF7; 18.5 µM (inactive) in the assay on MOLT-4; 28.6 µM (inactive) in the assay with NCI-H522; 56.8 µM (inactive) in the assay on OVCAR-8. Besides, the GI50 in the assay on PC-3 was 39.3 µM (inactive); in the assay with RXF 393 it was 20.9 µM (inactive); with SF-295, 33.7 µM (inactive); in the assay on SK-MEL-28 it was 29.3 µM (inactive); in the assay on SK-MEL-2, 19.4 µM (inactive); in the assay with SK-OV-3 it was 49.4 µM (inactive). The GI50 with SN12C was 40.2 µM (inactive); in the assay with SR, 5.58 µM (inactive).

The values are drawn from ChEMBL document CHEMBL1201862, “PubChem BioAssay data set” (2004).
